The values that follow come from patent US20170119742A1, “MEDICAMENT FOR PREVENTING AND/OR TREATING STRESS DISEASES” (ONO PHARMACEUTICAL CO., LTD., priority 2014, published 2017).

Assay [1] has as its system Wistar rats exposed to physical and mental stressors. As to the kind of experiment: Antistress effect: stool weight excreted during restraint stressor load in rats. The class given is in vivo. The following applies: rat; for average stool wet weight: 2 h before 1 h restraint stressor, vehicle 1.79 g, normal 0.04 g. As for the experimental part:
Male Sic: Wistar rats (Japan SLC, Inc., at the time of use: 11 weeks old) was exposed to physical and mental stressors (Journal of Pharmacological Science, Vol. 104, p. 263-273, 2007). The vehicle (0.5 w/v % methylcellulose 400 cP solution) or the compound of the present invention (0.1, 0.3, 1 and 3 mg/kg) was orally administered. Two hours after the administration, the stressor load was started by putting the rat in a restraint stress cage (Natsume Seisakusho Co., Ltd.). The antistress effect was evaluated by measuring the stool weight which was excreted during the stressor load of 1 hour (n=12 in each group).

Assay [2] relates to CCK-4 induced stress model. As to the kind of experiment: Antianxiety effect (2): freezing time in CCK-4 induced stress model. The class given is in vivo. Particulars: rat, 1 and 3 mg/kg oral, 2 h before CCK-4 3 mg/kg s.c., Steel test. As for the experimental part: Male LEW/CrlCrlj rats (Charles River Laboratories Japan, Inc., at the time of evaluation: 6 weeks old) were used. In accordance with Rupprecht et al. method (Science, Vol. 325, p. 490-493, 2009), cholecystokinin tetrapeptide (CCK-4) (3 mg/kg) was administered subcutaneously to the rat to induce freezing behavior which was used as an indicator of anxiety. The vehicle (0.5 w/v % methylcellulose 400 cP solution) or the compound of the present invention (1 or 3 mg/kg) was orally administered to the rat. Two hours after the administration, CCK-4 (3 mg/kg) was subcutaneously administered. Two minutes after the administration of CCK-4, the front paws of the rat were placed on a wooden block of height 7 cm. […] Instead of CCK-4, the normal group was administered 1% dimethyl formamide which is the vehicle of CCK-4. Cut-off time was set to 120 seconds. This trial was carried out a total five times at about 2 minute intervals, and the sum of the freezing time was calculated.

A further assay deals with T1, brain TSPO (Rattus norvegicus, UniProt P16257).
T1 construct: measured by using brain (cerebral cortex and hippocampus) homogenates of the vehicle treated group and the compound of the present invention treated group; from tissue; host or cells: Wistar rat brain (cerebral cortex, hippocampus) homogenate
As to the kind of experiment: Comparison of radiotracer in rat ex vivo brain occupancy (Biological example 5). Particulars: po, rat cerebral cortex, 3 h; for receptor occupancy at 0.03 mg/kg: 0.03 mg/kg oral; for receptor occupancy at 0.1 mg/kg: 0.1 mg/kg oral; for receptor occupancy at 0.3 mg/kg: 0.3 mg/kg oral; for receptor occupancy at 1 mg/kg: 1 mg/kg oral; for receptor occupancy at 3 mg/kg: 3 mg/kg oral. The method, then: Next, brain TSPO occupancy of the compound of the present invention was measured by using brain (cerebral cortex and hippocampus) homogenates of the vehicle treated group and the compound of the present invention treated group, using [^3H] PK11195 as a radiotracer. PK11195 was dissolved in dimethyl sulfoxide (DMSO) to prepare a 4 mmol/L solution. After preparing an ethanol solution of 100 nmol/L [^3H] PK11195 (PerkinElmer, Inc.), the solution was diluted 50-fold with 50 mmol/L HEPES buffer (Sigma-Aldrich Co.). In the case of determining the total binding amount of the radiotracer, 50 mmol/L HEPES (99 μL) and DMSO (1 μL) were added to Nunc MiniSorp (trade name, 12×75 mm, Thermo Fisher Scientific Inc.). In the case of determining the nonspecific binding amount of the radiotracer, 4 mmol/L PK11195 (1 μL) was substituted for DMSO (1 μL). The brain homogenate (50 μL) derived from cerebral cortex or the hippocampus was added to the tube. Then [^3H] PK11195 (50 μL) (cerebral cortex: final concentration 0.4532 nmol/L, hippocampus: final concentration 0.4520 nmol/L) was added and stirred, and the mixture was incubated for 90 minutes at 4° C. After completion of the reaction, ice-cold 50 mmol/L HEPES (2 mL) was added to the tube, and then the mixture was suction filtered on a glass fiber filter (GF/B, Brandel Inc.) which pretreated with 0.3 w/v % polyethyleneimine (Sigma-Aldrich Co.), to collect the brain homogenate. After drying the glass fiber filter, the absorbing part of the brain homogenate was transferred to a liquid scintillation vial. ACS-II scintillation cocktail (7 mL) was added to the liquid scintillation vial and stirred, and the radioactivity was measured by liquid scintillation counter (TRI-CARB2900TR, PerkinElmer Life and Analytical Sciences Inc.). Specific binding amount (dpm) of [3H] PK11195 in each brain homogenate was set to a value obtained by subtracting the nonspecific binding amount (dpm) from the total binding amount (dpm). TSPO occupancy (%) in cerebral cortex and hippocampus, of the compound of the present invention treated group, were calculated according to the following equation.
TSPO Occupancy (%)=(1−X/Y)×100
X: Specific binding amount (dpm) in each brain homogenate Y: Average value (dpm) of specific binding amount in control group
The vehicle (0.5 w/v % methylcellulose 400 cP solution) or the compound of the present invention (0.03, 0.1, 0.3, 1 or 3 mg/kg) was orally administered to male Sic: Wistar rats (Japan SLC, Inc., at the time of use: 11 weeks old). After 3 hours of the administration, in the same manner as Biological example 1, brain TSPO occupancy of the compound of the present invention relative to the specific binding of the vehicle control group was measured by measuring the specific binding amount of [^3H] PK11195 or [^3H] PBR28 (Sekisui Medical Co., Ltd.) of brain (cerebral cortex) homogenates (n=8 in each group). As a result, the average TSPO occupancy of 0.03, 0.1, 0.3, 1 and 3 mg/kg group of the compound of the present invention was […] in the cerebral cortex when [^3H] PK11195 was used as a radiotracer. On the other hand, the average TSPO occupancy was 6.5, 11.5, 40.4, 77.7 and 90.2% in the cerebral cortex when [^3H] PBR28 was used as a radiotracer. […] PBR28 or [^3H] PK11195 radiotracer.

For assay [3], the system named is female diarrhea-type IBS patients. As to the kind of experiment: HAM-D (Hamilton Depression scale) in the clinical trial of Biological example 10. The class given is in vivo, human. Particulars: 60 mg treatment. As for the experimental part:
In the clinical trial of Biological example 10, the therapeutic effect of the compound of the present invention 60 mg treatment on depression and anxiety-related diseases were evaluated using PSS (Perceived Stress Scale) (refer to Journal of Health and Social Behavior, 24, 386-396, 1983), HAM-A (Hamilton Anxiety Scale) (refer to The British journal of medical psychology, 32, 50-55, 1959) and HAM-D (Hamilton Depression scale) (refer to Journal of Neurology, Neurosurgery and Psychiatry, 23, 56-62, 1960) as rating scales.

`COc1cc(Cl)ccc1[C@H]1c2[nH]c3cccc(F)c3c2C2(CC2)CN1C(C)=O` [the compound of the present invention, (1S)-2-acetyl-1-(4-chloro-2-methoxyphenyl)-5-fluoro-1,2,3,9-tetrahydrospiro[β-carboline-4,1′-cyclopropane]]: the “average stool wet weight” value is 1.48 g in assay [1] (0.1 mg/kg oral), 0.96 g in assay [1] (0.3 mg/kg oral), 0.60 g in assay [1] (1 mg/kg oral) and 0.67 g in assay [1] (3 mg/kg oral). Also, in assay [1] (dose of 0.3, 1 and 3 mg/kg oral), the “effect on stool wet weight compared to the vehicle treated group” value is “significantly inhibit the stool wet weight”. Besides, the “freezing time vs. vehicle control group” value in assay [2] is listed as “shortened this extended freezing time significantly”. For the same compound, the figures for the receptor occupancy at 0.03 mg/kg at brain TSPO ([3H] PBR28) and at brain TSPO ([3H] PK11195) were 6.5% and -1.3%, respectively. Moreover, the receptor occupancy at 0.1 mg/kg is 11.5% on brain TSPO ([3H] PBR28) and 14.9% at brain TSPO ([3H] PK11195). Besides, the receptor occupancy at 0.3 mg/kg was 40.4% at brain TSPO ([3H] PBR28) and 48.1% at brain TSPO ([3H] PK11195). Further, the values for the receptor occupancy at 1 mg/kg on brain TSPO ([3H] PBR28) and at brain TSPO ([3H] PK11195) were 77.7% and 80.9%, respectively. Besides, the receptor occupancy at 3 mg/kg came out at 90.2% at brain TSPO ([3H] PBR28) and 91.3% on brain TSPO ([3H] PK11195). Besides, the “HAM-D score, 4th week” value was determined as 2 in assay [3] (Patient D, baseline 18); 3 in assay [3] (Patient E, baseline 13); 13 in assay [3] (Patient F, baseline 20); 4 in assay [3] (Patient G, baseline 13). Besides, the “HAM-D score, Amount of change from baseline” value in assay [3] (Patient D, baseline 18, 4th week) is −16; in assay [3] (Patient E, baseline 13, 4th week) it was −10; in assay [3] (Patient F, baseline 20, 4th week), −7; in assay [3] (Patient G, baseline 13, 4th week), −9.
